Reference: US20210251963A1, “UREA DERIVATIVES FOR USE IN THE TREATMENT OF SUBJECTS WITH ELEVATED EXPRESSION AND/OR ACTIVITY OF SRPK1” (Scandion Oncology A/S, priority 2018, published 2021)

Experiments:
[1] = system: HT29 SN38 resistant colon cancer cells; experiment: Cell viability (MTT assay); assay type: cell-based; details: for cell viability, % of untreated control cells: HT29 SN38 resistant
Protocol: (§1) SN38 was applied to a SN38 sensitive colon cancer cell line (“HT29 parental”) and to a SN38 resistant colon cancer cell line (“HT29 SN38 resistant”).
(§2) The Log Concentration (μM) used are—1 for SN38. Data represents cell viability data (MTT assay) and cells were incubated with drugs for 72 hours.
The Log Concentrations (μM) used are—1 for SN38, and 1.5 for both Srpkin340 and Sphinx 31. Data represents cell viability data (MTT assay) and cells were incubated with drugs for 72 hours.

[2] = system: HT29 parental colon cancer cells; experiment: Cell viability (MTT assay); assay type: cell-based; details: SN38 Log Concentration (μM) -1, 72 hours
Protocol: as §1, §2

CCc1c2c(nc3ccc(O)cc13)-c1cc3c(c(=O)n1C2)COC(=O)[C@]3(O)CC [SN38, reference compound]
cell viability, % of untreated control cells ([1]; SN38 0.1 μM alone, 72 hours, Example 4): 75% | cell viability, % of untreated control cells ([1]; SN38 Log Concentration (μM) -1, 72 hours, Example 3): 73% | cell viability, % of untreated control cells [2]: 27%

O=C(Nc1cc(C(F)(F)F)ccc1N1CCN(Cc2ccccn2)CC1)c1ccc(-c2ccncc2)o1 [Sphinx31, reference compound]
restoration of SN38 sensitivity in SN38 resistant HT29 colon cancer cells ([1]; Log Concentration (μM) 1.5 of inhibitor with SN38 -1, 72 hours): can restore the SN38 sensitivity
